We go through twelve molecules from PMC5895059, “Scaffold hopping from (5-hydroxymethyl) isophthalates to multisubstituted pyrimidines diminishes binding affinity to the C1 domain of protein kinase C” (PLoS ONE, 2018).

SMILES strings stand for the structures. Several values for one entry are separate records, joined by “and”; a condition that tells them apart may be missing. Identical values can stand only once.

For assay [1], the target named is T1, PKCα (Homo sapiens, UniProt P17252). As to conditions: read-out: Ki PKCα; cited from earlier work.
In assay [2] the target is T1, PKCα. Description: [3H]PDBu displacement, 96-well plate filtration binding assay. The note with it: for Displacement assay raw data (CCPM): single replicate wells; for Residual [^3H]PDBu binding to PKCα (% of control): 20 μM compound concentration, mean + SEM, n = 2–8.
In the next assay the target is PKCα and -δ. More on the design: method as in PMID 19438240. The note with it: for PKCα and -δ; cited from earlier work.

The term Ki denotes a measure of affinity in units of concentration, obtained from inhibition or displacement.

As to `CCCCCCCCCCc1ccc2c(c1)N[C@@H](C(C)C)C(=O)N[C@H](CO)C2` [9-Decyl-benzolactam-V8, 9-decyl-benzolactam-V8], the Ki on PKCα [1] was 3.8 nM.
Regarding `CCCCCCCOc1nc(CO)nc(C(=O)OCc2cccc(C(F)(F)F)c2)c1C` [Compound 2j, 3-(trifluoromethyl)benzyl 6-(heptyloxy)-2-(hydroxymethyl)-5-methylpyrimidine-4-carboxylate], the “Displacement assay raw data (CCPM)” value at PKCα [2] (0,2 µM test substance) was 5070 CCPM and 6403 CCPM and 6171 CCPM and 8628 CCPM and 8277 CCPM and 7942 CCPM; at PKCα [2] (1 µM test substance), 5379 CCPM and 6351 CCPM and 6353 CCPM and 8453 CCPM and 7986 CCPM and 7710 CCPM; at PKCα [2] (4 µM test substance) it was 5347 CCPM and 4876 CCPM and 6039 CCPM and 8146 CCPM and 8038 CCPM and 8545 CCPM; on PKCα [2] (10 µM test substance), 4978 CCPM and 4910 CCPM and 4651 CCPM and 7817 CCPM and 7871 CCPM and 7636 CCPM; on PKCα [2] (20 µM test substance), 5492 CCPM and 5042 CCPM and 4393 CCPM and 7145 CCPM and 7596 CCPM and 7314 CCPM; at PKCα [2] (30 µM test substance), 4511 CCPM and 5233 CCPM and 4215 CCPM and 6957 CCPM and 7148 CCPM and 7222 CCPM. Also, the “Residual [^3H]PDBu binding to PKCα (% of control)” value (shortened to “Residual … (% of control)”) at PKCα [2] is recorded as 87.2 ± 6.0 % of control.
On to `CCCCC(CC)Oc1nc(CO)nc(C(=O)OC)c1C` (stereo not drawn) [Compound 2k, Methyl 6-(heptan-3-yloxy)-2-(hydroxymethyl)-5-methylpyrimidine-4-carboxylate], for which the “Displacement assay raw data (CCPM)” value on PKCα [2] (0,2 µM test substance) is 13386 CCPM and 11844 CCPM and 11381 CCPM and 5560 CCPM and 5090 CCPM and 5580 CCPM; on PKCα [2] (1 µM test substance) it was 12313 CCPM and 12292 CCPM and 11097 CCPM and 5334 CCPM and 5340 CCPM and 5211 CCPM; on PKCα [2] (4 µM test substance), 12488 CCPM and 11770 CCPM and 11977 CCPM and 5381 CCPM and 5013 CCPM and 5436 CCPM; on PKCα [2] (10 µM test substance), 12602 CCPM and 12313 CCPM and 12064 CCPM and 5438 CCPM and 4595 CCPM and 5996 CCPM; on PKCα [2] (20 µM test substance), 12386 CCPM and 11227 CCPM and 11279 CCPM and 6057 CCPM and 6588 CCPM and 6792 CCPM; at PKCα [2] (30 µM test substance), 11742 CCPM and 11565 CCPM and 11279 CCPM and 5575 CCPM and 6135 CCPM and 5991 CCPM. At PKCα [2], the “Residual … (% of control)” value is listed as 110.7 ± 5.5 % of control.
Regarding `CCCCC(CC)Oc1nc(CO)nc(C(=O)OCc2cccc(C(F)(F)F)c2)c1C` (stereo not drawn) [Compound 2l, 3-(trifluoromethyl)benzyl 6-(heptan-3-yloxy)-2-(hydroxymethyl)-5-methylpyrimidine-4-carboxylate], the “Displacement assay raw data (CCPM)” value was 11787 CCPM and 12303 CCPM and 12556 CCPM and 11461 CCPM and 11853 CCPM and 10747 CCPM at PKCα [2] (0,2 µM test substance); 11810 CCPM and 12833 CCPM and 12739 CCPM and 9497 CCPM and 9690 CCPM and 11213 CCPM on PKCα [2] (1 µM test substance); 12017 CCPM and 12127 CCPM and 12580 CCPM and 10346 CCPM and 11241 CCPM and 10654 CCPM at PKCα [2] (4 µM test substance); 10371 CCPM and 11662 CCPM and 12071 CCPM and 9995 CCPM and 8831 CCPM and 10464 CCPM at PKCα [2] (10 µM test substance); 9853 CCPM and 10455 CCPM and 11136 CCPM and 9012 CCPM and 9579 CCPM and 9472 CCPM on PKCα [2] (20 µM test substance); 9538 CCPM and 8697 CCPM and 9196 CCPM and 7998 CCPM and 9967 CCPM and 8566 CCPM at PKCα [2] (30 µM test substance). Besides, at PKCα [2], the “Residual … (% of control)” value is given as 87.2 ± 3.1 % of control. Moreover, the “Displacement of [^3H]PDBu from PKCα (in words)” value at PKCα [2] (concentration range of 0.2–30 μM) is given as “strongest concentration dependence”.
Take `O=C(OCc1cccc(C(F)(F)F)c1)c1cc(CO)cc(C(=O)OCc2cccc(C(F)(F)F)c2)c1` [HMI-1a3, reference compound]: the “Residual … (% of control)” value on PKCα [2] is 54.8 ± 2.6 % of control.
In the case of `CCCCC(CC)OC(=O)c1cc(CO)cc(C(=O)OC(CC)CCCC)c1` (stereo not drawn) [HMI-1b11], the Ki at PKCα and -δ is 205 to 915 nM.
`CC(C)C1C(=O)NC(CO)Cc2c[nH]c3cccc(c23)N1C` (stereo not drawn) [Indolactam-V, indolactam-V]: the Ki on PKCα [1] is 11 nM.
Consider `C/C=C(/C)C(=O)O[C@H]1C(C)=C[C@]23C(=O)[C@H](C=C(CO)[C@@H](O)[C@]12O)[C@H]1[C@@H](C[C@H]3C)C1(C)C` [Ingenol 3-angelate, ingenol 3-angelate], for which the Ki at PKCα [1] was 0.1 nM.
For the molecule `CC1=CC[C@H](C)C(C)(C)[C@@H]1/C=C/C(C)=C/CC[C@@]1(CO)[C@H](CCCO)/C(=C(/C)C=O)CC[C@]1(C)O` [Iripallidal, iripallidal], the Ki on PKCα [1] was 75.6 nM.
Regarding `C=C(C)[C@@]12O[C@@]3(c4ccccc4)O[C@@H]1[C@@H]1[C@@H]4O[C@]4(CO)[C@@H](O)[C@]4(O)C(=O)C(C)=C[C@H]4[C@@]1(O3)[C@H](C)[C@H]2OC(=O)/C=C/C=C/c1ccccc1` [Mezerein, mezerein], at PKCα [1], the Ki is 0.27 nM.
With `CCCCCCCCCCCCCC(=O)O[C@@H]1[C@@H](C)[C@@]2(O)[C@@H](C=C(CO)C[C@]3(O)C(=O)C(C)=C[C@@H]23)[C@@H]2C(C)(C)[C@]12OC(C)=O` [Phorbol 12-myristate-13-acetate, reference compound], the “Displacement assay raw data (CCPM)” value was 1177 CCPM and 1302 CCPM and 1254 CCPM and 242 CCPM and 282 CCPM and 239 CCPM and 330 CCPM and 372 CCPM and 364 CCPM at PKCα [2] (1 nM test substance, listed as PMA); 406 CCPM and 456 CCPM and 410 CCPM and 123 CCPM and 132 CCPM and 186 CCPM and 230 CCPM and 206 CCPM on PKCα [2] (10 nM test substance, listed as PMA); 341 CCPM and 382 CCPM and 361 CCPM and 56 CCPM and 49 CCPM and 43 CCPM and 48 CCPM and 57 CCPM and 40 CCPM at PKCα [2] (100 nM test substance, listed as PMA).
In the case of `CC(=O)O[C@@]12[C@H](O)[C@@H](C)[C@@]3(O)[C@@H](C=C(CO)C[C@]4(O)C(=O)C(C)=C[C@@H]34)[C@@H]1C2(C)C` [Phorbol 13-acetate, phorbol 13-acetate], on PKCα [1], the Ki was 120000 nM.
